From US20250304549A1, “HYDROXYAMIDE DERIVATIVE AND USE THEREOF” (SICHUAN HUIYU PHARMACEUTICAL CO., LTD., priority 2022, published 2025)
Counter-ions that a name gives are not always drawn.

Assays:
pan-HDAC = experiment: In vitro enzyme inhibition assay - HDAC (HDAC-Glo I/II), pan-HDAC; assay type: biochemical
How it was run: (§1)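 Eight compound concentrations (5-fold gradient; 1 mM DMSO stock) were assayed by HDAC-Glo I/II luminescence. IC50 was obtained by four-parameter fitting.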

HDAC8 = HDAC8 (Homo sapiens (Human), UniProt Q9BY41); experiment: In vitro enzyme inhibition assay - HDAC (HDAC-Glo I/II), HDAC8; assay type: biochemical; settings: read-out: HDAC IC50 (nM) HDAC 8
Sequence of HDAC8 (Q9BY41 whole entry): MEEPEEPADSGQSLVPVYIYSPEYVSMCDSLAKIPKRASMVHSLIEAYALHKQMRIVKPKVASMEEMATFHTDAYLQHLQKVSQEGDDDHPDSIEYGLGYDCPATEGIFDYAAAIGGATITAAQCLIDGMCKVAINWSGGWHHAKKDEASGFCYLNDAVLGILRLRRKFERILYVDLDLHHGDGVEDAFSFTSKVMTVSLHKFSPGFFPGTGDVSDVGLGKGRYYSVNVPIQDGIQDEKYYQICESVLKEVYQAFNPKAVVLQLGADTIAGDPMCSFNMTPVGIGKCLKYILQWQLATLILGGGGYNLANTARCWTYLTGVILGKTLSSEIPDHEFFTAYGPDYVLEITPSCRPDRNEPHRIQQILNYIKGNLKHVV
How it was run: as §1

HDAC1 = HDAC1 (Homo sapiens (Human), UniProt Q13547); experiment: In vitro enzyme inhibition assay - HDAC (HDAC-Glo I/II), HDAC1; assay type: biochemical; settings: read-out: HDAC IC50 (nM) HDAC 1
Sequence of HDAC1 (Q13547 whole entry): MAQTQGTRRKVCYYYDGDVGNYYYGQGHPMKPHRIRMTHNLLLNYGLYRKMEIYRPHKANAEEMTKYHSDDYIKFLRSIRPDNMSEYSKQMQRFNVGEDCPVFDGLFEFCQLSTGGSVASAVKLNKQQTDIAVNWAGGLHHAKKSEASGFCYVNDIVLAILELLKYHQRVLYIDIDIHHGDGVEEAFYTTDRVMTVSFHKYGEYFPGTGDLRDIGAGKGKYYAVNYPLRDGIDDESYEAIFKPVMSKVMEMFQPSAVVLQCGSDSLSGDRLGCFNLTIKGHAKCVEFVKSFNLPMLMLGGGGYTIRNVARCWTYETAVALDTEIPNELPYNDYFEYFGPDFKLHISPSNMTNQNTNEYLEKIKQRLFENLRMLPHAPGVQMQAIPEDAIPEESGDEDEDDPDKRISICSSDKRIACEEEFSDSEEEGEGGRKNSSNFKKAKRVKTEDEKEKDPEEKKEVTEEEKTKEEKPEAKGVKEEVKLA
Procedure: 2. In Vitro Enzyme Inhibition Assay—HDAC
The effect of the compound on the enzymatic activity of pan-HDAC and two isoforms (HDAC1 and HDAC8) was examined using the HDAC-Glo I/II Assay and Screening System assay to assess the level of inhibition of HDAC protease activity and selectivity in each isoform. The proteins and detection reagents were from the HDAC-Glo™ I/II Assay and Screening System (Promega). A 1 mM stock solution of the compound was prepared in DMSO and diluted in a 5-fold gradient to create a series of 8 concentrations, and a specific volume of the highest concentration was diluted 25 times with HDAC Buffer to obtain 4× working solution of the compound. […] The 384-well plate was then read on a multifunctional microplate reader, with the Luminescence channel selected to record Luminescence values (RLU). The inhibition rate was calculated using the following formula: […]
Note: ‘Negative’ refers to the group without the inhibitor; ‘Blank’ refers to the group without the enzyme.
The IC50 value was calculated by fitting the inhibition rate by GraphPad Prism software, employing log (inhibitor) vs. response-Variable Slope (four parameters) model.

NCI-H69 cells = experiment: In vitro cell inhibition assay - NCI-H69 cell proliferation (CellTiter-Glo); assay type: cell-based; settings: Homo sapiens, NCI-H69, H69 small cell lung cancer cell proliferation
How it was run: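 NCI-H69 cells seeded at 1×10^3 per well overnight, then given 8 compound concentrations (5-fold dilutions) in RPMI-640 with 20% FBS for 7 days at 37° C., 5% CO2. Viable cells by CellTiter-Glo luminescence; IC50 fitted from inhibition rate versus no-inhibitor and no-cell controls.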

LSD1 = LSD1 (Homo sapiens (Human), UniProt O60341); experiment: In vitro enzyme inhibition assay - LSD1 (HTRF); assay type: biochemical
NCI-H1417 cells = experiment: In vitro cell inhibition assay - H1417 cell proliferation (CellTiter-Glo); assay type: cell-based
How it was run: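 Cells exposed to 8 compound concentrations (5-fold dilutions) in BEGM with 10% FBS for 7 days at 37° C., 5% CO2. Viable cells measured by CellTiter-Glo luminescence; inhibition versus no-inhibitor and no-cell controls, IC50 fitted.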

NCI-H526 cells = experiment: In vitro cell inhibition assay - NCI-H526 cell proliferation (CellTiter-Glo); assay type: cell-based; settings: Homo sapiens, NCI-H526, 120 h, H526 small cell lung cancer cell proliferation, 5 days
How it was run: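 NCI-H526 cells plated at 1×10^3 per well overnight, then treated with 8 concentrations (5-fold dilutions) in RPMI-640 with 10% FBS for 5 days at 37° C., 5% CO2. Viable cells quantified by CellTiter-Glo luminescence; IC50 fitted from inhibition rates relative to no-inhibitor and no-cell controls.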

[1] = Homo sapiens, NCI-H1417, H1417 small cell lung cancer cell proliferation

Row | SMILES | IC50 (pan-HDAC) | IC50 (HDAC8) | IC50 (HDAC1) | IC50 (NCI-H69 cells) | IC50 (LSD1) | IC50 (NCI-H1417 cells; [1]) | IC50 (NCI-H1417 cells; H1417 small cell lung cancer cell proliferation) | IC50 (NCI-H526 cells)
1 | COc1ccc(-c2c(OCc3ccc(/C=C/C(=O)NO)cc3)cc(N3CCC(N)CC3)nc2-c2ccc(C#N)c(F)c2)cc1O [Example 2, (E)-3-(4-(((6-(4-Aminopiperidin-1-yl)-2-(4-cyano-3-fluorophenyl)-3-(3-hydroxy-4-methoxyphenyl)pyridin-4-yl)oxy)methyl)phenyl)-N-hydroxyacrylamide hydrochloride] | 66.9 nM | 289 nM | 92.3 nM | 7890 nM | 1.58 nM | 51.9 nM |  | 
2 | COc1cc(N2CCC(N)CC2)nc(-c2ccc(C#N)c(F)c2)c1-c1ccc(/C=C/C(=O)NO)c(O)c1 [Example 28, (E)-3-(4-(6-(4-Amino-piperidin-1-yl)-2-(4-cyano-3-fluorophenyl)-4-methoxypyridin-3-yl)-2-hydroxyphenyl)-N-hydroxyacrylamide formate] | 270 nM | 2330 nM | 608 nM |  | 0.64 nM | 25.5 nM |  | 
3 | CNC1CCN(c2ncc(-c3ccc(NCc4ccc(C(=O)NO)cc4)c(O)c3)c(-c3ccc(C#N)c(F)c3)c2C#N)CC1 [Example 39, 4-((4-(4-(5-Cyano-4-(4-cyano-3-fluorophenyl)-6-(4-(methylamino)piperidin-1-yl)pyridin-3-yl)-2-hydroxyphenyl)amino)methyl)-N-hydroxybenzamide hydrochloride] | 167 nM | 207 nM | 335 nM | 2390 nM | 0.15 nM | 5.2 nM |  | 
4 | COc1ccc(-c2cnc(N3CCC(NCc4ccc(/C=C/C(=O)NO)nc4)CC3)c(CC#N)c2-c2ccc(C#N)c(F)c2)cc1O [Example 217, (E)-3-(5-(((1-(4-(4-cyano-3-fluorophenyl)-3-(cyanomethyl)-5-(3-hydroxy-4-methoxyphenyl)pyridin-2-yl)piperidin-4-yl)amino)methyl)pyridin-2-yl)-N-hydroxyacrylamide formate] | 0.25 nM |  | 0.73 nM | 11.1 nM | 13.6 nM | 5.06 nM |  | 20.9 nM
5 | CC(C)(O)COc1ccc(-c2cnc(N3CCC(NCc4ccc(/C=C/C(=O)NO)cc4)CC3)c(CC#N)c2-c2ccc(C#N)c(F)c2)cc1O [Example 218, (E)-3-(4-(((1-(4-(4-Cyano-3-fluorophenyl)-3-(cyanomethyl)-5-(3-hydroxy-4-(2-hydroxy-2-methylpropoxy)phenyl)pyridin-2-yl)piperidin-4-yl)amino)methyl)phenyl)-N-hydroxyacrylamide formate] | 1.01 nM |  | 1.77 nM | 15.3 nM | 10.2 nM | 13.4 nM |  | 35.6 nM
6 | COc1ccc(-c2cnc(N3CCC(NCc4cnc(/C=C/C(=O)NO)cc4Cl)CC3)c(C#N)c2-c2ccc(C#N)c(F)c2)cc1O [Example 227, (E)-3-(4-Chloro-5-(((1-(3-cyano-4-(4-cyano-3-fluorophenyl)-5-(3-hydroxy-4-methoxyphenyl)pyridin-2-yl)piperidin-4-yl)amino)methyl)pyridin-2-yl)-N-hydroxyacrylamide formate] | 11.3 nM |  | 9.71 nM | 24.1 nM | 0.64 nM | 7.36 nM |  | 109 nM
7 | N#Cc1ccc(-c2c(-c3ccc(Cl)c(O)c3)cnc(N3CCC(NCc4ccc(/C=C/C(=O)NO)cc4)CC3)c2C#N)cn1 [Example 237, (E)-3-(4-((1-(5′-(4-Chloro-3-hydroxyphenyl)-3′,6-dicyano-[3,4′-bipyridin]-2′-yl)piperidin-4-yl)amino)methyl) phenyl)-N-hydroxyacrylamide formate] | 3.37 nM |  | 1.29 nM | 3.27 nM | 1.75 nM | 4.06 nM |  | 4.4 nM
8 | N#Cc1ccc(-c2c(-c3ccc(Cl)c(O)c3)cnc(N3CCC(NCc4ccc(/C=C/C(=O)NO)cn4)CC3)c2C#N)cn1 [Example 238, (E)-3-(6-((1-(5′-(4-Chloro-3-hydroxyphenyl)-3′,6-dicyano-[3,4′-bipyridin]-2′-yl)piperidin-4-yl)amino)methyl) pyridin-3-yl)-N-hydroxyacrylamide formate] | 4.05 nM |  | 1.62 nM | 28.7 nM | 3.48 nM | 25.7 nM |  | 56.1 nM

Second part, the molecule after the results:

Row | IC50 (pan-HDAC) | IC50 (HDAC8) | IC50 (HDAC1) | IC50 (NCI-H69 cells) | IC50 (LSD1) | IC50 (NCI-H1417 cells; [1]) | IC50 (NCI-H1417 cells; H1417 small cell lung cancer cell proliferation) | IC50 (NCI-H526 cells) | SMILES
9 | 119 nM | 275 nM | 400 nM |  | 0.05 nM | 65 nM |  |  | N#Cc1ccc(-c2nc(N3CCC(N)CC3)n3ccnc3c2-c2ccc(OCCCCCCC(=O)NO)c(O)c2)cc1F [Example 21, 7-(4-(5-(4-Aminopiperidin-1-yl)-7-(4-cyano-3-fluorophenyl)imidazo[1,2-c]pyrimidin-8-yl)-2-hydroxyphenoxy)-N-hydroxyheptanamide hydrochloride]
10 | 74.4 nM | 320 nM | 198 nM | 760 nM | 0.23 nM | 1.55 nM |  |  | N#Cc1ccc(-c2nc(N3CCC(N)CC3)n3ccnc3c2-c2ccc(OCc3ccc(/C=C/C(=O)NO)cc3)c(O)c2)cc1F [Example 23, (E)-3-(4-(4-(5-(4-Aminopiperidin-1-yl)-7-(4-cyano-3-fluorophenyl)imidazo[1,2-c]pyrimidin-8-yl)-2-hydroxyphenoxy)methyl)phenyl)-N-hydroxyacrylamide hydrochloride]
11 | 5.83 nM | 118 nM | 8.28 nM |  | 0.41 nM | 42.3 nM |  |  | CNC1CCN(c2ncc(-c3ccc(OCCCCCCC(=O)NO)c(O)c3)c(-c3ccc(C#N)c(F)c3)c2C#N)CC1 [Example 24, 7-(4-(5-cyano-4-(4-cyano-3-fluorophenyl)-6-(4-(methylamino)piperidin-1-yl)pyridin-3-yl)-2-hydroxyphenoxy)-N-hydroxyheptanamide hydrochloride]
12 | 66.9 nM | 696 nM | 123 nM | 3200 nM | 0.96 nM | 92.2 nM |  |  | COc1cc(N2CCC(N)CC2)nc(-c2ccc(C#N)c(F)c2)c1-c1ccc(OC/C=C/C(=O)NO)c(O)c1 [Example 29, (E)-4-(4-(6-(4-Amino-piperidin-1-yl)-2-(4-cyano-3-fluorophenyl)-4-methoxypyridin-3-yl)-2-hydroxyphenoxy)-N-hydroxybut-2-enamide hydrochloride]
13 | 552 nM | 353 nM | 1060 nM |  | 1.13 nM |  | 140 nM |  | Cc1ccc(-c2c(-c3ccc(C#N)c(F)c3)nc(N3CCC(NCCCCCCC(=O)NO)CC3)n3ccnc23)cc1O [Example 34, 7-(1-(7-(4-cyano-3-fluorophenyl)-8-(3-hydroxy-4-methylphenyl)imidazo[1,2-c]pyrimidin-5-yl)piperidin-4-yl)amino)-N-hydroxyheptanamide Hydrochloride]
14 | 467 nM | 893 nM | 642 nM | 1280 nM | 91.5 nM | 5.4 nM |  |  | Cc1ccc(-c2c(-c3ccc(C#N)c(F)c3)nc(N3CCC(NC(=O)CCCCCCC(=O)NO)CC3)n3ccnc23)cc1O [Example 56, N^1-(1-(7-(4-cyano-3-fluorophenyl)-8-(3-hydroxy-4-methylphenyl)imidazo[1,2-c]pyrimidin-5-yl)piperidin-4-yl)-N^8-hydroxyoctanediamide hydrochloride]
15 | 31.9 nM | 136 nM | 47.4 nM | 3000 nM | 0.1 nM | 46.3 nM |  |  | N#Cc1ccc(-c2c(-c3ccc(NC(=O)CCCCCCC(=O)NO)c(O)c3)cnc(N3CCC(N)CC3)c2C#N)cc1F [Example 58, N^1-(4-(6-(4-aminopiperidin-1-yl)-5-cyano-4-(4-cyano-3-fluorophenyl)pyridin-3-yl)-2-hydroxyphenyl)-N^8-hydroxyoctanediamide hydrochloride]
